The values that follow are results of earlier work, collected in patent publication US6645392B2, “Method of removing wrinkles from fabric” (The Procter & Gamble Company, priority 2000, dated 2003).

Conditions in one series: not given
As to `ClC=CC[N+]12CN3CN(CN(C3)C1)C2.[Cl-]` [Dowicil 200, 1-(3-Chlorallyl)-3,5,7-triaza-1-azoniaadamantane chloride], the “solubility in water” value is “freely soluble in water”.

Still in this series, the particulars now being: in water.
On to `OCCOc1ccccc1` [2-phenoxyethanol], for which the water solubility entry is on record as “about 2.67%”.

Regarding `OCCc1ccccc1` [2-phenylethanol], the water solubility result is “about 2%”.

Regarding `O=[N+]([O-])C1(Br)COCOC1` [Bronidox L, 5-bromo-5-nitro-1,3-dioxane], the water solubility result is on record as “about 0.46%”.

For the molecule `O=[N+]([O-])C(Br)(CO)CO` [Bronopol, 2-bromo-2-nitropropane-1,3-diol], the water solubility result is given as “about 25%”.

Turning to `CC1(C)C(=O)N(CO)C(=O)N1CO` [DMDM hydantoin, 1,3-bis(hydroxymethyl)-5,5-dimethyl-2,4-imidazolidinedione], the water solubility result is reported as “more than 50%”.

With `OCc1ccccc1` [benzyl alcohol], the water solubility entry is “about 4%”.

Turning to `[H]/N=C(\N/C(=N/[H])NCCCCCCNC(=N)NC(=N)Nc1ccc(Cl)cc1)Nc1ccc(Cl)cc1` [chlorhexidine diacetate, 1,1′-hexamethylene bis(5-(p-chlorophenyl)biguanide), reference compound], the water solubility result is recorded as “about 1.8%”.

On to `[H]/N=C(\N/C(=N/[H])NCCCCCCNC(=N)NC(=N)Nc1ccc(Cl)cc1)Nc1ccc(Cl)cc1` [chlorhexidine digluconate, 1,1′-hexamethylene bis(5-(p-chlorophenyl)biguanide), reference compound], for which the water solubility entry is “about 70%”.

On to `CC(C)(O)C(Cl)(Cl)Cl` [chlorobutanol, 1,1,1-Trichloro-2-methylpropan-2-ol], for which the water solubility result is reported as “about 0.8%”.

As to `[Na+].[O-][n+]1ccccc1[S-]` [sodium pyrithione], the water solubility result is recorded as “about 50%”.
